In ChEMBL document CHEMBL4354808, “Drugs for the Treatment of Zika Virus Infection” (J Med Chem, 2020):
Residues, ends and D or L forms follow the SMILES beside them.

Tests used:
[1] = Cytotoxicity against African green monkey Vero cells; format: cell-based; conditions: chlorocebus sabaeus
[2] = Cytotoxicity against human HuH7 cells; format: cell-based; conditions: Huh-7 cells
[3] = Cytotoxicity against human RD cells; format: cell-based
[4] = target: T1, NS5 (Zika virus, UniProt A0A143MHK7); assay: Inhibition of Zika virus MTase (4 to 278 residues) expressed in Escherichia coli T7 using GpppAC4 as substrate in presence of [3H]SAM incubated for 30 mins by liquid scintillation counter method
T1 sequence (A0A143MHK7 whole entry, the tested form may be a part): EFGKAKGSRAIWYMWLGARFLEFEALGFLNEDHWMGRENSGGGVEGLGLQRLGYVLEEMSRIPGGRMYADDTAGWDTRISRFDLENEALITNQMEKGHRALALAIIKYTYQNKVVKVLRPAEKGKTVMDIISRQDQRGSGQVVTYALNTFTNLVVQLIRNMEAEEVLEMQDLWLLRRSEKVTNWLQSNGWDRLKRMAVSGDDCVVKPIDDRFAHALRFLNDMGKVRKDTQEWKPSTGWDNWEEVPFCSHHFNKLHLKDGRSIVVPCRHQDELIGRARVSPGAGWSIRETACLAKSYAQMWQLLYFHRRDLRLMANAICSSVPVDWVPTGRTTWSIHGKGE

[5] = target: T1, NS5; assay: Inhibition of Zika virus MTase (4 to 278 residues) expressed in Escherichia coli T7 using A27 RNA as substrate in presence of [3H]SAM incubated for 30 mins by liquid scintillation counter method
[6] = target: T2, Nonstructural protein 3 (Zika virus, UniProt A0A024AXB9); assay: Inhibition of N-terminal His6-tagged Zika virus NS2B (49 to 95 residues) - NS3 (1 to 170 residues) protease domain expressed in Escherichia coli BL21-Gold (DE3) cells preincubated for 10 mins followed by Bz-Nle-Lys-Lys-Arg-AMC substrate addition
T2 sequence (A0A024AXB9 whole entry, the tested form may be a part): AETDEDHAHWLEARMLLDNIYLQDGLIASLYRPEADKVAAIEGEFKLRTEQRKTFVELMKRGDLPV

[7] = target: Genome polyprotein (dengue virus type 2, UniProt P29990); assay: Inhibition of Dengue virus 2 NS2B (48 to 95 residues)-NS3 (1 to 185 residues) expressed in Escherichia coli BL21 Rosetta (DE3) incubated for 30 mins followed by Abz-RRRRSAG-nTyr substrate addition
Chain of Genome polyprotein (P29990 1346-1475 limits assumed): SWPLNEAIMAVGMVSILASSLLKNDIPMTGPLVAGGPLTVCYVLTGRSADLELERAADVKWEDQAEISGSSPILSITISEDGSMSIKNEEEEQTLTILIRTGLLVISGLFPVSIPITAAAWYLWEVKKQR
Chain of Genome polyprotein (P29990 1476-2093 limits assumed): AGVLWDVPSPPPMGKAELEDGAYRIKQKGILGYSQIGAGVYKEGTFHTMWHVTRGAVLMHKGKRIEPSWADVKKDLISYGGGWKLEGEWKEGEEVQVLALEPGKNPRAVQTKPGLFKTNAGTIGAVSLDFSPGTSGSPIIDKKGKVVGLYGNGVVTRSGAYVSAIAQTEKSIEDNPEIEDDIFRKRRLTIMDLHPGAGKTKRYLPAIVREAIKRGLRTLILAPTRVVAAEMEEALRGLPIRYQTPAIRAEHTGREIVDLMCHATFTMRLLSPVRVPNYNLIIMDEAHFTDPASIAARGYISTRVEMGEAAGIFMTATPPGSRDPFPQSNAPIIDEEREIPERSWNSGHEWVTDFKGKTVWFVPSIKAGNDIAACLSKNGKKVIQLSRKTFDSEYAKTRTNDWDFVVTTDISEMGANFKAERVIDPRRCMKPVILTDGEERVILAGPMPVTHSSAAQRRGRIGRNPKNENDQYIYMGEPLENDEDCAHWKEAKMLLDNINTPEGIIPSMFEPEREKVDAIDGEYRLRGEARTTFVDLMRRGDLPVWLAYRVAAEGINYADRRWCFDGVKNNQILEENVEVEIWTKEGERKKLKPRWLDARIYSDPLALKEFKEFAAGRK

[8] = system: Zika virus; assay: Antiviral activity against Zika virus Puerto Rico/PRVABC59 infected in human A549 cells after 48 hrs by plaque reduction assay; format: functional, organism-based; conditions: Puerto Rico/PRVABC59, A549, 48 h
[9] = system: Yellow fever virus; assay: Antiviral activity against Yellow fever virus 17D V3 Vaccine infected in human A549 cells after 48 hrs by plaque reduction assay; format: functional, organism-based; conditions: A549, 48 h
[10] = system: dengue virus type 2; assay: Antiviral activity against Dengue virus 2 New Guinea C infected in human A549 cells after 48 hrs by plaque reduction assay; format: functional, organism-based; conditions: A549, 48 h
[11] = system: West Nile virus; assay: Antiviral activity against West Nile virus NY003356V2 infected in human A549 cells after 48 hrs by plaque reduction assay; format: functional, organism-based; conditions: NY003356V2, A549, 48 h
[12] = Cytotoxicity against human A549 cells after 42 hrs by WST-8 cell proliferation assay; format: cell-based
[13] = target: T1, NS5; assay: Inhibition of Zika virus RNA-dependent RNA polymerase using poly(rC)/rG13 as substrate after 45 mins
[14] = system: Zika virus; assay: Antiviral activity against Zika virus PLCal_ZV infected in Huh7 cells by Promega Viral ToxGlo Assay; format: functional, organism-based; conditions: Huh-7
[15] = Cytotoxicity against golden hamster BHK21 cells by Promega Viral ToxGlo Assay; format: cell-based, Mesocricetus auratus; conditions: BHK-21 cells
[16] = Cytotoxicity against African green monkey Vero E6 cells by the MTS method; format: cell-based, Vero C1008; conditions: chlorocebus sabaeus
[17] = Selectivity ratio of CC50 for African green monkey Vero E6 cells to EC50 for Zika virus MR766 infected in African green monkey Vero E6 cells; format: toxicity, Vero C1008; conditions: read-out: Ratio CC50/EC50
[18] = Cytotoxicity against human NSC by CellTiter-Glo assay; format: cell-based; conditions: NSC cells
[19] = target: T1, NS5; assay: Binding affinity to Zika virus Methyltransferase
[20] = system: Zika virus; assay: Antiviral activity against Zika virus Mex2-81 infected in human Jeg-3 cells assessed as reduction in virus-induced toxicity preincubated with cells for 1 hr followed by viral infection and measured 36 hrs post infection; format: functional, organism-based; conditions: Mex2-81, JEG-3
[21] = Cytotoxicity against human JEG3 cells incubated for 36 hrs by resazurin-dye based Alamar blue assay; format: cell-based; conditions: JEG-3 cells
[22] = target: T2, Nonstructural protein 3; assay: Inhibition of wild type Zika virus NS2B-NS3 protease preincubated for 30 mins followed by Pyr-RTKR-AMC substrate addition
[23] = Cytotoxicity against human Neural progenitor cells after 24 hrs by ATP-Lite assay; format: cell-based
[24] = Half life in SJL mouse infected with Zika virus PA259459 at 10 mg/kg, ip measured up to 2 hr post infection by LC-MS/MS analysis; format: ADME, organism-based; conditions: in vivo
[25] = system: Zika virus; assay: Antiviral activity against Zika virus PA 259459 infected in SJL mouse assessed as decrease in viral RNA at 30 mg/kg dosed 5 times per day via drinking water for 5 days by RT-PCR relative to control; format: functional
[26] = Cytotoxicity against African green monkey Vero cells incubated for 4 days by luminescence method; format: cell-based; conditions: chlorocebus sabaeus
[27] = target: T2, Nonstructural protein 3; assay: Inhibition of N-terminal His6-tagged Zika virus NS2B (45 to 96 residues) - NS3 (1 to 177 residues) protease domain expressed in Escherichia coli BL21-Gold (DE3) cells or Escherichia coli BL21 Rosetta (DE3) preincubated for 30 mins followed by Bz-nKRR-AM substrate addition measured over 10 mins at 60 secs interval by fluorescence method
[28] = Inhibition of Protein E in Zika virus SZ01 infected in BHK21 cells assessed as antiviral activity after 12 hrs by CCK8 assay; format: cell-based; conditions: SZ01, BHK-21, 12 h
[29] = Inhibition of Protein E in Zika virus FLR infected in BHK21 cells assessed as antiviral activity after 12 hrs by CCK8 assay; format: cell-based; conditions: BHK-21, 12 h
[30] = Inhibition of Protein E in Zika virus MR766 infected in BHK21 cells assessed as antiviral activity after 12 hrs by CCK8 assay; format: cell-based; conditions: MR766, BHK-21, 12 h
[31] = Cytotoxicity against African green monkey Vero cells after 24 hrs by CCK8 assay; format: cell-based; conditions: chlorocebus sabaeus
[32] = Cytotoxicity against BHK21 cells after 24 hrs by CCK8 assay; format: cell-based, Mesocricetus auratus; conditions: hamster, BHK-21 cells
[33] = Cytotoxicity against human HuH7 cells after 24 hrs by CCK8 assay; format: cell-based; conditions: Huh-7 cells
[34] = system: Zika virus; assay: Antiviral activity against Zika virus MR766 infected in African green monkey Vero cells by plaque assay; format: functional, organism-based
[35] = Cytotoxicity against BHK21 cells after 24 to 48 hrs by CCK8 assay; format: cell-based, Mesocricetus auratus; conditions: hamster, BHK-21 cells

Nc1ncnc2c([C@@H]3N[C@H](CO)[C@@H](O)[C@H]3O)c[nH]c12
CC50 [1]: > 89 µM | CC50 [2]: > 89 µM | CC50 [3]: > 89 µM

C#C[C@@]1(O)[C@H](O)[C@@H](CO)O[C@H]1n1ccc2c(N)ncnc21
CC50 [1]: > 50 µM

Nc1cc(C(F)(F)F)ccc1NC(=O)Nc1cccc(S(=O)(=O)Nc2ccc(C(=O)O)cc2)c1
IC50 [4]: 24 µM | IC50 [5]: 79 µM

N=C(N)NCCC[C@H](NC(=O)[C@H](Cc1ccc(CN)cc1)NC(=O)c1ccccc1)B(O)O
IC50 [6]: 0.25 µM | Ki [6]: 0.04 µM

O=C1C=C/C(=N/Nc2ccc([N+](=O)[O-])cc2Cl)C=C1C(=O)Nc1cccc(Cl)c1
IC50 [7]: 1.8 µM | EC50 [8]: 1 µM | EC50 [9]: 0.28 µM | EC50 [10]: 0.81 µM | EC50 [11]: 1.27 µM | CC50 at 42 h [12]: 48.8 µM

[N-]=[N+]=NCc1cnc(C(=O)NO)c(O)c1CO
IC50 [13]: 5.2 µM | EC50 [14]: 4.6 µM | CC50 [15]: 22 µM

CCCCCOCc1c(Nc2ccc(S(N)(=O)=O)cc2)nc(N2CCOCC2)nc1C(=O)NCCOc1ccccc1
CC50 [16]: > 83.5 µM | selectivity ratio [17]: > 41

C#C[C@@]1(O)[C@H](O)[C@@H](COP(=O)(N[C@@H](C)C(=O)OC(C)C)Oc2ccccc2)O[C@H]1n1ccc(=O)[nH]c1=O (some centres undefined)
CC50 [18]: > 50 µM

Nc1ncnc2c1ncn2[C@@H]1O[C@H](CN(CC[C@H](N)C(=O)O)Cc2ccc(F)cc2)[C@@H](O)[C@H]1O
Kd [19]: 24.3 µM

CO[C@H]1CC[C@@H](O[C@H]2C[C@H]([C@]3(C)CC[C@]4(C[C@H](O)[C@@H](C)[C@@H]([C@@H](C)/C=C(\C)C(=O)[C@H](C)C[C@H](C)C(=O)O)O4)O3)O[C@]3(O[C@@H]([C@H]4O[C@@](O)(CO)[C@H](C)C[C@@H]4C)C[C@@H]3C)[C@@H]2C)O[C@@H]1C
EC50 [20]: 0.97 µM | CC50 at 36 h [21]: 6.1 µM

Clc1nc2n[nH]nc2nc1Cl
IC50 [22]: 0.82 µM | CC50 at 24 h [23]: > 50 µM | half-life [24]: 20 min | fold change (FC) [25]: 10

CC(C)OC(=O)[C@H](C)NP(=O)(OC[C@H]1O[C@@H](n2ccc(=O)[nH]c2=O)[C@H](O)[C@@H]1O)Oc1ccccc1 (some centres undefined)
CC50 [18]: 47 µM

O=C(NC(=S)Nc1ccc(N2CCN(C(=O)c3cccs3)CC2)cc1)c1sc2ccccc2c1Cl
CC50 at 96 h [26]: 19.4 µM

COc1ccc(S(=O)(=O)n2nc(OC(=O)c3ccccc3)cc2N)cc1
IC50 [27]: 1.5 µM

CC[C@H](C)[C@H](NC(=O)CNC(=O)[C@H](CCCCN)NC(=O)CNC(=O)[C@H](CC(C)C)NC(=O)[C@H](CO)NC(=O)[C@H](CC(N)=O)NC(=O)[C@H](CC(C)C)NC(=O)[C@H](C)NC(=O)CNC(=O)CNC(=O)[C@@H](NC(=O)[C@H](CO)NC(=O)CNC(=O)[C@H](Cc1ccccc1)NC(=O)[C@H](CC(=O)O)NC(=O)[C@H](Cc1c[nH]c2ccccc12)NC(=O)[C@H](C)NC(=O)[C@@H](NC(=O)[C@H](CC(=O)O)NC(=O)CNC(=O)[C@H](CC(C)C)NC(=O)[C@@H](NC(=O)[C@H](C)NC(=O)[C@@H](N)CCSC)C(C)C)[C@@H](C)O)C(C)C)C(=O)N[C@@H](Cc1cnc[nH]1)C(=O)N[C@@H](CCC(N)=O)C(=O)N[C@H](C(=O)N[C@@H](Cc1ccccc1)C(=O)NCC(=O)N[C@@H](C)C(=O)N[C@@H](C)C(=O)N[C@@H](Cc1ccccc1)C(=O)O)[C@@H](C)CC (H-MAVLGDTAWDFGSVGGALNSLGKGIHQIFGAAF-OH)
EC50 [28]: 1.75 to 13.9 µM | EC50 [29]: 1.75 to 13.9 µM | EC50 [30]: 1.75 to 13.9 µM | CC50 at 24 h [31]: > 50 µM | CC50 at 24 h [32]: > 50 µM | CC50 at 24 h [33]: > 50 µM

O[C@@H](c1cc(C(F)(F)F)nc2c(C(F)(F)F)cccc12)[C@H]1CCCCN1 [(S,R)-MEFLOQUINE]
EC50 [34]: 3.95 µM | CC50 [35]: 20.4 µM

C[S+](CC[C@H](N)C(=O)[O-])C[C@H]1O[C@@H](n2cnc3c(N)ncnc32)[C@H](O)[C@@H]1O (some centres undefined) [ADEMETIONINE]
Kd [19]: 2.58 µM
